Here are results for one molecule from paper PMC9598925, “Synthetic Amphipathic β-Sheet Temporin-Derived Peptide with Dual Antibacterial and Anti-Inflammatory Activities” (Antibiotics, 2022).

≈ marks a conversion by molar mass, not a printed value. Like-named read-outs stand apart in the source and are kept apart here. Non-standard residues stand in square brackets, D forms with d. Residues, ends and D or L forms follow the SMILES beside them. Nle = CCCC[C@H](N)C(=O)O

One data set in a line: ANTS/DPX leakage assay. The settings on record: 100% = 0.1% Triton. The procedure:
The ability of the peptide [Nle^1, DLeu^9, DLys^10]TL to induce LUVs leakage was evaluated using ANTS/DPX assay. After the preparation of lipid films (0.1 mM) as described above, fluorophores ANTS (12.5 mM) and DPX (45 mM) were dissolved in water and added to lipid films. The mixture was frozen and lyophilized overnight. Then, the lipid films with ANTS and DPX were hydrated with PBS 1× buffer, vortexed for 1 h and then treated to obtain LUVs. The nonencapsulated ANTS and DPX were removed by gel filtration using a Sephadex G-50 column (1.5 cm × 10 cm) at room temperature. The leakage experiment was performed titrating LUVs with different peptide concentrations of 5, 10, 15, 20, 30, 50 μM, and each sample was excited at 385 nm (slit width, 5 nm) and the fluorescence emission was recorded at 512 nm (slit width, 5 nm). The liposomes leakage promoted by peptide was correlated with an increase of ANTS fluorescence at 512 nm. In this experiment, the control was represented by the complete release of ANTS after the treatment of LUVs with 0.1% Triton. The liposomes leakage was calculated as % Leakage = (Fi − F0)/(Ft − F0), where F0 is the fluorescence of intact LUVs before the addition of peptide, and Fi and Ft is the intensities of the fluorescence achieved after peptide and Triton-X treatment, respectively.

Data set [1] can be described thus: Circular dichroism in vesicles. The settings on record: vesicles of DOPG/CL and DOPG/DOPE/CL, peptide 3 μM, phosphate buffer 5 mM pH 7.4, 25 °C; negative band at ~220 nm. It counts as physicochemical. The procedure: All CD spectra were recorded from 260 to 190 nm (a bandwidth of 3 nm, a time constant of 16 s, and a scan rate of 10 nm/min) on a Jasco J-175 spectropolarimeter using a 1 cm quartz cell at 25 °C. Small unilamellar vesicles (SUVs) made of DOPG/CL (58/42 ratio in moles) and DOPG/DOPE/CL (63/23/12 ratio in moles) were used in the conformational study. SUVs were prepared as reported previously. Firstly, lipids dissolved in chloroform and an equal volume of peptide solution dissolved in 2,2,2-trifluoroethanol (TFE) containing the peptide [Nle^1, DLeu^9, DLys^10]TL at a concentration of 3 μM were mixed, vortexed, and lyophilized overnight. Then, the dry samples were hydrated with phosphate buffer 5 mM, pH 7.4, for 1 h and sonicated for 30 min to obtain SUVs. Each spectrum was corrected for the blank and converted into mean molar ellipticity.
Background: Circular dichroism is the unequal absorption of left and right circularly polarised light.

Data set [2] concerns J774A.1 murine macrophage cells. The settings on record: MTT, 3 independent experiments.
Protocol: The spectrophotometric absorbance was then measured using a microtiter enzyme-linked immunosorbent assay reader (Multiskan™ GO Microplate Spectrophotometer; Thermo Scientific™, Milan, Italy) at 540 nm. The percentage of cell viability was assessed by the following formula: (OD of treated cells/OD of control) × 100.
The test system of a further data set is A. baumannii ATCC 19606. It counts as cell-based. As for the experimental part:
(§1) All Gram-negative and Gram-positive strains were obtained from the American Type Culture Collection (Rockville, MD, USA). MICs were determined as described previously. 50 μL of bacterial culture properly diluted in Mueller–Hinton (MH) broth were added to each well of a 96-well plate containing 50 μL of MH with serially two-fold diluted peptide from 100 μM, to reach a final cell density of 1 × 10^6 CFU/mL. Each MIC value indicates the lowest concentration of compound that causes a total inhibition of bacterial growth after 16–18 h of incubation at 37 °C.

In another data set the test system is P. aeruginosa ATCC 27853. The format is cell-based. The procedure:
as §1

The subject of the next data set is E. coli ATCC 25922. It counts as cell-based. As for the experimental part:
as §1

In the next data set the test system is S. aureus ATCC 25923. It counts as cell-based. The procedure:
as §1

Data set [3] deals with K. pneumoniae ATCC BAA-1705. It counts as cell-based. As for the experimental part:
as §1

Another data set relates to B. megaterium Bm11. It counts as cell-based. The procedure: as §1
Data set [4] has as its system S. epidermidis ATCC 12228. It counts as cell-based. As for the experimental part:
as §1

For a further data set, the system named is sheep red blood cells. Kind of data set: Hemolytic assay. It counts as cell-based. The procedure:
Hemolysis was evaluated on sheep red blood cells (OXOID, SR0051D, Milan, Italy). Aliquots of cells in 0.9% (w/v) NaCl were incubated with the peptide [Nle^1, DLeu^9, DLys^10]TL at different concentrations (ranging from 3.12 to 100 μM) for 40 min at 37 °C with gentle shaking. Controls were erythrocytes treated with vehicle while total lysis controls were obtained by suspending cell in distilled water. Then, the samples were centrifuged for 5 min at 900× g, and the presence of hemoglobin in the supernatant was measured at an absorbance of 415 nm using a microplate reader (Infinite M200; Tecan, Salzburg, Austria) and compared to the complete lysis of erythrocytes (100%). The data reported are the mean ± the standard error of the mean (S.E.M.) of three independent experiments.

The test system of data set [5] is IL-6 production in LPS-stimulated J774A.1 cells. In words: Anti-inflammatory activity, IL-6 ELISA in LPS-stimulated macrophages. It counts as cell-based, murine. The settings on record: LPS 10 µg∙mL^−1, peptide 3 μM, 24 h, ELISA of supernatant, three independent experiments. The procedure:
Mouse macrophage cell line J774A.1 was cultured as previously described. Cells were seeded in Petri culture dishes (100 mm × 20 mm) at a density of 5 × 10^5 cells per dish and allowed to grow for 24 h. The medium was then replaced, and cells were treated with LPS (10 μg∙mL^−1) in presence or absence of [Nle^1, DLeu^9, DLys^10]TL at the concentration of 3 µM (non-cytotoxic concentration from MTT assay). Following incubation of 24 h, cells were collected with a cell scraper, and after centrifugation at 14,000× g for 10 min at 4 °C, the supernatant was collected and assayed for IL-6 enzyme-linked immunosorbent assay (ELISA) analysis.
Background: An ELISA detects its analyte on a solid surface through an enzyme-linked reagent.

The next data set can be described thus: in vitro. The settings on record: male, human, 90% human serum (from human male AB plasma).

Protocol for in vitro: The peptide was mixed with 90% of human serum at a final concentration of 200 μM and incubated at 37 °C [27]. Aliquots of the mixture were taken at time intervals of 15, 45, 75, 90 and 120 min. The serum protein was removed by the precipitation with acetonitrile (MeCN) and centrifuged at 13,000 rpm for 15 min. Then, the supernatant was taken and analyzed by ultra-high performance liquid chromatography (UHPLC) using a Phenomenex Kinetex column (4.6 mm × 150 mm, 5 μm, C18) and a linear gradient from 10 to 90% of MeCN (0.1% TFA) in water (0.1% TFA) over 20 min. The percentage of the intact peptide was calculated by integrating the peak area of the UHPLC chromatogram.

Usually MIC stands for the smallest concentration in the dilution series that meets the test's criterion for growth inhibition. Read a low MIC as a more susceptible organism. Usually fraction remaining stands for what is left of the initial amount, in per cent. A higher fraction remaining goes with greater stability. With `CCCC[C@H](N)C(=O)N[C@@H](Cc1ccccc1)C(=O)N[C@H](C(=O)N1CCC[C@H]1C(=O)N[C@@H](Cc1c[nH]c2ccccc12)C(=O)N[C@@H](Cc1ccccc1)C(=O)N[C@@H](CO)C(=O)N[C@@H](CCCCN)C(=O)N[C@@H](Cc1ccccc1)C(=O)N[C@H](CC(C)C)C(=O)N[C@H](CCCCN)C(=O)N[C@@H](CCCNC(=N)N)C(=O)N[C@H](C(=O)N[C@@H](CC(C)C)C(N)=O)[C@@H](C)CC)C(C)C` [[Nle^1, DLeu^9, DLys^10]TL] (H-[Nle]FVPWFSKF[dL][dK]RIL-NH2), the LUVs leakage is given as ~ 60% in “ANTS/DPX leakage assay” (10 μM peptide, LUVs DOPG/CL) and ~ 20% in the data set “ANTS/DPX leakage assay” (highest concentration of 50 μM, LUVs DOPG/DOPE/CL). For the same molecule, the “molecular conformation (CD)” value in data set [1] is recorded as “β-type conformation”. Moreover, the “cytotoxic effect on murine macrophage cell line” value in data set [2] (J774A.1, 1–3 μM) was “safe profile”; in data set [2] (J774A.1, 10 and 30 μM), “significant reduction of cell viability”. Moreover, the MIC amounted to 3.12 µM (≈ 5.6 µg/mL) against A. baumannii ATCC 19606; 12.5 µM (≈ 22.4 µg/mL) with P. aeruginosa ATCC 27853; 6.25 µM (≈ 11.2 µg/mL) in the data set on E. coli ATCC 25922; 3.12 µM (≈ 5.6 µg/mL) against S. aureus ATCC 25923; 12.5 µM (≈ 22.4 µg/mL) in [3]; 0.78 µM (≈ 1.4 µg/mL) in the data set with B. megaterium Bm11. In [4], this molecule yielded a minimum inhibitory concentration (MIC) of 3.12 µM (≈ 5.6 µg/mL). Also, the hemolysis with sheep red blood cells (50 µM) and in the data set on sheep red blood cells (100 µM) was ~ 40% in each case. In addition, the IL-6 production entry in data set [5] is given as “significant modulation of IL-6 production”. This molecule gave a share remaining at 0.75 h, 200 μM in the data set “in vitro” of around 75%. Besides, the amount remaining at 2 h, 200 μM in “in vitro” is around 50%.
